Laboratory results published in the supplement of paper PMC10307832.

How the values were obtained:
Test in all cases: relative viability (nuclei count vs DMSO), 5 days (fraction); higher = more cells survive
IA-LM = test system: IA-LM
In short: (§1)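 For relative viability, nuclei counts in treated wells were divided by those in vehicle wells. Lung cancer cell lines had been pin-tool dosed in 1536-well plates the day after seeding and cultured for 5 days, then fixed and stained in one step (final 0.05% Triton X-100, 1% formaldehyde, 1 ug/ml Hoechst) and imaged at 4×. Doses were one drug alone or a fixed anchor-drug dose plus five library-drug doses (not always all listed) in √10 steps, and values are duplicate-plate medians.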

A549 = test system: A549
In short: as §1

NCI-H1703 = test system: NCI-H1703
In short: as §1

Calu-6 = test system: Calu-6
In short: as §1

EBC-1 = test system: EBC-1
In short: as §1

NCI-H1563 = test system: NCI-H1563
In short: as §1

NCI-H1299 = test system: NCI-H1299
In short: as §1

For `O=C(O)CCCCC(CCSCc1ccccc1)SCc1ccccc1` (stereo unspecified) [CPI-613] + CS(=O)(=O)CCNCc1ccc(-c2ccc3ncnc(Nc4ccc(OCc5cccc(F)c5)c(Cl)c4)c3c2)o1 [Lapatinib] (partner 2 µM), the relative viability (IA-LM; first compound 5 µM) was 0.694, the relative viability (IA-LM; first compound 15.81 µM) was 0.802 and the relative viability (IA-LM; first compound 50 µM) was 0.665. The relative viability (IA-LM; first compound 158.11 µM) was 0.269, the relative viability (IA-LM; first compound 500 µM) was 0.208 and the relative viability (A549; first compound 5 µM) was 0.933. The relative viability (A549; first compound 15.81 µM) was 0.967, the relative viability (A549; first compound 50 µM) was 0.787 and the relative viability (A549; first compound 158.11 µM) was 0.348. For the same compound, the relative viability (A549; first compound 500 µM) was 0.249, the relative viability (NCI-H1703; first compound 5 µM) was 0.943 and the relative viability (NCI-H1703; first compound 15.81 µM) was 1.11. It also gave a relative viability (NCI-H1703; first compound 50 µM) of 1.1, a relative viability (NCI-H1703; first compound 158.11 µM) of 0.452 and a relative viability (NCI-H1703; first compound 500 µM) of 0.274. For the same compound, the relative viability (Calu-6; first compound 5 µM) was 1.04, the relative viability (Calu-6; first compound 15.81 µM) was 1.03 and the relative viability (Calu-6; first compound 50 µM) was 0.866. For the same compound, the relative viability (Calu-6; first compound 158.11 µM) was 0.775, the relative viability (Calu-6; first compound 500 µM) was 0.563 and the relative viability (EBC-1; first compound 5 µM) was 0.252. For the same compound, the relative viability (EBC-1; first compound 15.81 µM) was 0.213, the relative viability (EBC-1; first compound 50 µM) was 0.212 and the relative viability (EBC-1; first compound 158.11 µM) was 0.175. The relative viability (EBC-1; first compound 500 µM) was 0.145, the relative viability (NCI-H1563; first compound 5 µM) was 1 and the relative viability (NCI-H1563; first compound 15.81 µM) was 0.886. For the same compound, the relative viability (NCI-H1563; first compound 50 µM) was 0.998, the relative viability (NCI-H1563; first compound 158.11 µM) was 0.427 and the relative viability (NCI-H1563; first compound 500 µM) was 0.103. The relative viability (NCI-H1299; first compound 5 µM) was 0.923, the relative viability (NCI-H1299; first compound 15.81 µM) was 0.945 and the relative viability (NCI-H1299; first compound 50 µM) was 0.965. The relative viability (NCI-H1299; first compound 158.11 µM) was 0.899 and the relative viability (NCI-H1299; first compound 500 µM) was 0.888.

`O=C(O)CCCCC(CCSCc1ccccc1)SCc1ccccc1` (stereo unspecified) [CPI-613] + C[C@]1(O)C[C@@H](c2nc(-c3ccc4ccc(-c5ccccc5)nc4c3)c3c(N)nccn32)C1 [Linsitinib] (partner 1 µM) showed a relative viability (IA-LM; first compound 5 µM) of 0.703, a relative viability (IA-LM; first compound 15.81 µM) of 0.364 and a relative viability (IA-LM; first compound 50 µM) of 0.432. It also gave a relative viability (IA-LM; first compound 158.11 µM) of 0.527, a relative viability (IA-LM; first compound 500 µM) of 0.358 and a relative viability (A549; first compound 5 µM) of 0.529. It also gave a relative viability (A549; first compound 15.81 µM) of 0.521, a relative viability (A549; first compound 50 µM) of 0.588 and a relative viability (A549; first compound 158.11 µM) of 0.722. It also gave a relative viability (A549; first compound 500 µM) of 0.597, a relative viability (NCI-H1703; first compound 5 µM) of 1.21 and a relative viability (NCI-H1703; first compound 15.81 µM) of 0.809. For the same compound, the relative viability (NCI-H1703; first compound 50 µM) was 0.568, the relative viability (NCI-H1703; first compound 158.11 µM) was 0.17 and the relative viability (NCI-H1703; first compound 500 µM) was 0.439. It also gave a relative viability (Calu-6; first compound 5 µM) of 1.02, a relative viability (Calu-6; first compound 50 µM) of 0.726 and a relative viability (Calu-6; first compound 158.11 µM) of 0.905. For the same compound, the relative viability (Calu-6; first compound 500 µM) was 0.658, the relative viability (EBC-1; first compound 5 µM) was 0.874 and the relative viability (EBC-1; first compound 15.81 µM) was 0.695. For the same compound, the relative viability (EBC-1; first compound 50 µM) was 0.593, the relative viability (EBC-1; first compound 158.11 µM) was 0.786 and the relative viability (EBC-1; first compound 500 µM) was 0.608. For the same compound, the relative viability (NCI-H1563; first compound 5 µM) was 1.26, the relative viability (NCI-H1563; first compound 15.81 µM) was 1.21 and the relative viability (NCI-H1563; first compound 50 µM) was 1.23. The relative viability (NCI-H1563; first compound 158.11 µM) was 0.454, the relative viability (NCI-H1563; first compound 500 µM) was 0.208 and the relative viability (NCI-H1299; first compound 5 µM) was 0.933. The relative viability (NCI-H1299; first compound 15.81 µM) was 0.894, the relative viability (NCI-H1299; first compound 50 µM) was 0.869 and the relative viability (NCI-H1299; first compound 158.11 µM) was 1. For the same compound, the relative viability (NCI-H1299; first compound 500 µM) was 0.957.

For `Cc1cnc(-c2cnc(NCCNc3ccc(C#N)cn3)nc2-c2ccc(Cl)cc2Cl)[nH]1` + C[C@]1(O)C[C@@H](c2nc(-c3ccc4ccc(-c5ccccc5)nc4c3)c3c(N)nccn32)C1 [Linsitinib] (partner 1 µM), the relative viability (IA-LM; first compound 0.08 µM) was 0.604, the relative viability (IA-LM; first compound 0.253 µM) was 0.257 and the relative viability (IA-LM; first compound 0.8 µM) was 0.744. The relative viability (IA-LM; first compound 2.53 µM) was 0.542, the relative viability (A549; first compound 0.08 µM) was 0.719 and the relative viability (A549; first compound 0.253 µM) was 0.477. It also gave a relative viability (A549; first compound 0.8 µM) of 0.468, a relative viability (A549; first compound 2.53 µM) of 0.548 and a relative viability (NCI-H1703; first compound 0.08 µM) of 0.986. For the same compound, the relative viability (NCI-H1703; first compound 0.253 µM) was 0.631, the relative viability (NCI-H1703; first compound 0.8 µM) was 0.884 and the relative viability (NCI-H1703; first compound 2.53 µM) was 1.21. For the same compound, the relative viability (Calu-6; first compound 0.08 µM) was 1.01, the relative viability (Calu-6; first compound 0.253 µM) was 0.888 and the relative viability (Calu-6; first compound 2.53 µM) was 0.971. The relative viability (EBC-1; first compound 0.08 µM) was 0.913, the relative viability (EBC-1; first compound 0.253 µM) was 0.713 and the relative viability (EBC-1; first compound 0.8 µM) was 0.859. It also gave a relative viability (EBC-1; first compound 2.53 µM) of 0.819, a relative viability (NCI-H1563; first compound 0.08 µM) of 1.33 and a relative viability (NCI-H1563; first compound 0.253 µM) of 1.2. The relative viability (NCI-H1563; first compound 0.8 µM) was 1.22, the relative viability (NCI-H1563; first compound 2.53 µM) was 1.1 and the relative viability (NCI-H1299; first compound 0.08 µM) was 0.882. The relative viability (NCI-H1299; first compound 0.253 µM) was 0.967, the relative viability (NCI-H1299; first compound 0.8 µM) was 0.503 and the relative viability (NCI-H1299; first compound 2.53 µM) was 0.861.
